Experimental data reported in ChEMBL document CHEMBL1143325 (Bioorg Med Chem, 2009).

Columns and labels:
Carbonic anhydrase 4 = Carbonic anhydrase 4 (Homo sapiens, UniProt P22748)
Carbonic anhydrase 14 = Carbonic anhydrase 14 (Homo sapiens, UniProt Q9ULX7)
Carbonic anhydrase 13 = Carbonic anhydrase 13 (Mus musculus, UniProt Q9D6N1)
[1] = molecular target: Carbonic anhydrase 5B, mitochondrial (Homo sapiens, UniProt Q9Y2D0)
Carbonic anhydrase 2 = Carbonic anhydrase 2 (Homo sapiens, UniProt P00918)
Carbonic anhydrase 6 = Carbonic anhydrase 6 (Homo sapiens, UniProt P23280)
Chain of Carbonic anhydrase 6 (P23280 whole entry): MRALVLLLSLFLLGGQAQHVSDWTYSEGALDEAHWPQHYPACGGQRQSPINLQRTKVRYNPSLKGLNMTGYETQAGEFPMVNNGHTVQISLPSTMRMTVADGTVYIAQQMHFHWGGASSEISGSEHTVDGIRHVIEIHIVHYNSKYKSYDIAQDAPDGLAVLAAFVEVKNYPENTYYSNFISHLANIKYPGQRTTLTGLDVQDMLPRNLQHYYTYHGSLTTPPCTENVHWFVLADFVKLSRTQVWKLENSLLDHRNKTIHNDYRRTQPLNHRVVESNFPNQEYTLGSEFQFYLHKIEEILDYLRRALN

Carbonic anhydrase 3 = Carbonic anhydrase 3 (Homo sapiens, UniProt P07451)
Chain of Carbonic anhydrase 3 (P07451 whole entry): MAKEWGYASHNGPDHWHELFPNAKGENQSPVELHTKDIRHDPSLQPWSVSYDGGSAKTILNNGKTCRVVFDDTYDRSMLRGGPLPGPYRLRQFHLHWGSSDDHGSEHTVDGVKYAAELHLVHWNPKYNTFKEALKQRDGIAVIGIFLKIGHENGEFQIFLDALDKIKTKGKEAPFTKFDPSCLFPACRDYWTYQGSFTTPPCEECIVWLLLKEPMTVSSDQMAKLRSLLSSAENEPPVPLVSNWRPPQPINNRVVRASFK

Carbonic anhydrase 9 = Carbonic anhydrase 9 (Homo sapiens, UniProt Q16790)
Carbonic anhydrase 7 = Carbonic anhydrase 7 (Homo sapiens, UniProt P43166)
Chain of Carbonic anhydrase 7 (P43166 whole entry): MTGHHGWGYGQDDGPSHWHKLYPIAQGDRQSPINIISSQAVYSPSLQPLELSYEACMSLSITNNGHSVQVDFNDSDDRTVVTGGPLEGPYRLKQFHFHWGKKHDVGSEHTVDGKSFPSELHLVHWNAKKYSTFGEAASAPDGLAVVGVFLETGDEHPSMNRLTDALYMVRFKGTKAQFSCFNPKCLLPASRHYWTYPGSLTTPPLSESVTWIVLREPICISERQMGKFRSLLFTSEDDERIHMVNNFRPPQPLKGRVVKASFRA

[2] = molecular target: Carbonic anhydrase 5A, mitochondrial (Homo sapiens, UniProt P35218)
Chain of Carbonic anhydrase 5A, mitochondrial (P35218 whole entry): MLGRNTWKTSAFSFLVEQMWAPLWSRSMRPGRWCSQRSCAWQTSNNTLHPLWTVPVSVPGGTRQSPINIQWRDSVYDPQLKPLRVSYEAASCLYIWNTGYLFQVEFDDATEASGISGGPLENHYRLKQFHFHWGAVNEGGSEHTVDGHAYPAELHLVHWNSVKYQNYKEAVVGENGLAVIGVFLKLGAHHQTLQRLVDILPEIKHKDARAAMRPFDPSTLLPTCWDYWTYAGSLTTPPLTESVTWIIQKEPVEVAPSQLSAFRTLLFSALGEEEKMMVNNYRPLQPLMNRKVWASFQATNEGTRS

Chain of Carbonic anhydrase 13 (Q9D6N1 whole entry): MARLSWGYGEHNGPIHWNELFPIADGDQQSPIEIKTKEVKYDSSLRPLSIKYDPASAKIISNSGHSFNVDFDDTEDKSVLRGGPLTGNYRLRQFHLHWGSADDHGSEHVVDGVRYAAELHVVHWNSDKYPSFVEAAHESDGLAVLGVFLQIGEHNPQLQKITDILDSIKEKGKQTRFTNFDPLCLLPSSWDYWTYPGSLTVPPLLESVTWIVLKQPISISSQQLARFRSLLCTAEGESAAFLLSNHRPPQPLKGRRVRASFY
Chain of Carbonic anhydrase 5B, mitochondrial (Q9Y2D0 whole entry): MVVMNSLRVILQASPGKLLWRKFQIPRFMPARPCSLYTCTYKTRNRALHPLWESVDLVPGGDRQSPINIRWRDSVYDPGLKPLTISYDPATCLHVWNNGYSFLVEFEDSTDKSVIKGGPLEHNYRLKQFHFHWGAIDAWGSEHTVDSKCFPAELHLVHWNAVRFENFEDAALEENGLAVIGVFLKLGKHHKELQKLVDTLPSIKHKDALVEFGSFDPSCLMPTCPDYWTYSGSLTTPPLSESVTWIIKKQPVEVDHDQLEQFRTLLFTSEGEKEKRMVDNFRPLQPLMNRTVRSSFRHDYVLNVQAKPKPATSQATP
Chain of Carbonic anhydrase 4 (P22748 whole entry): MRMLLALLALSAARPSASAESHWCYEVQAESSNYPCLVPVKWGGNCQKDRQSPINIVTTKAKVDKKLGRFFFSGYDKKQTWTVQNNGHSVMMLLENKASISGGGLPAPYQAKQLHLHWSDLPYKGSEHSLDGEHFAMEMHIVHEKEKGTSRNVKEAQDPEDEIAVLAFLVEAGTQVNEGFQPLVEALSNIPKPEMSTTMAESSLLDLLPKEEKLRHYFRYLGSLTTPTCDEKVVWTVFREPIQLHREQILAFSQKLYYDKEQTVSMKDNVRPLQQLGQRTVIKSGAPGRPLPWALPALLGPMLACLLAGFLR
Chain of Carbonic anhydrase 14 (Q9ULX7 whole entry): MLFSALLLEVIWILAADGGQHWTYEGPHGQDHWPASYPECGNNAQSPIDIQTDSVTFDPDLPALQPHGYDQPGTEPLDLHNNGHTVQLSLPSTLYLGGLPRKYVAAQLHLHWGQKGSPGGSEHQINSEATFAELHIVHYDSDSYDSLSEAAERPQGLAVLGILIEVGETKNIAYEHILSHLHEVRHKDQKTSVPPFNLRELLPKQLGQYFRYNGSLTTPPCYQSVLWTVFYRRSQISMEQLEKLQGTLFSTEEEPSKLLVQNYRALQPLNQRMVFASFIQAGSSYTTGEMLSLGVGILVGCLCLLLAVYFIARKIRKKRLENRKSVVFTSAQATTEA

Structure (SMILES) | Ki (Carbonic anhydrase 4) [µM] | Ki (Carbonic anhydrase 14) [µM] | Ki (Carbonic anhydrase 13) [µM] | Ki [1] [µM] | Ki (Carbonic anhydrase 2) [µM] | Ki (Carbonic anhydrase 6) [µM] | Ki (Carbonic anhydrase 3) [µM] | Ki (Carbonic anhydrase 9) [µM] | Ki (Carbonic anhydrase 7) [µM] | Ki [2] [µM]
NS(=O)(=O)c1cc(C2(O)NC(=O)c3ccccc32)ccc1Cl (configuration not stated) [CHLORTHALIDONE] | 0.196 | 4.13 | 0.015 | 0.009 | 0.138 | 1.35 | 11 | 0.023 | 0.0028 | 0.917
NS(=O)(=O)c1cc(C(=O)O)c(NCc2ccco2)cc1Cl [FUROSEMIDE] |  |  |  |  |  |  | 3200 |  |  | 
CC1Cc2ccccc2N1NC(=O)c1ccc(Cl)c(S(N)(=O)=O)c1 (configuration not stated) [INDAPAMIDE] |  |  |  |  |  |  | 230 |  |  | 
